From PubChem BioAssay (NCI)
Several values for one entry are separate records, joined by “and”; a condition that tells them apart may be missing. Identical values can stand only once.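 Five concentrations, 48 hours, 96-well plates. GI50: concentration for 50% inhibition of growth. TGI denotes the concentration required for complete inhibition of growth.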

Tests used:
Test in all cases: NCI tumour cell line growth inhibition, 48 h
[1] = system: 786-0 renal
[2] = system: HCC-2998 colon
[3] = system: HL-60(TB) leukemia
[4] = system: IGROV1 ovarian
[5] = system: KM12 colon
[6] = system: NCI-H23 lung
[7] = system: OVCAR-3 ovarian
[8] = system: LOX IMVI melanoma
[9] = system: MDA-MB-435
[10] = system: MCF7 breast

With `O=C(c1ccncc1)n1nc(-c2ccccc2)c(N=Nc2ccccc2[N+](=O)[O-])c1-c1ccccc1` the TGI [1] was > 100 µM, the TGI [2] was > 100 µM and the TGI [3] was > 100 µM. For the same molecule, the TGI [4] was > 100 µM, the TGI [5] was > 100 µM and the TGI [6] was > 100 µM. For the same molecule, the TGI [7] was > 100 µM.

In the case of `Cc1ccccc1C1=C(C(=O)Nc2ccc(Cl)c(Cl)c2)NC(=S)NC1N` (configuration not stated), the TGI [1] is reported as > 100 µM, the TGI [4] is reported as > 100 µM and the TGI [5] is reported as > 100 µM. The TGI [8] was > 100 µM, the TGI [6] was > 100 µM and the TGI [7] was > 100 µM.

With `COC(=O)C(=O)C(C(=O)C(=O)Nc1cccc(C(C)=O)c1)c1nc2ccccc2[nH]c1=O` (configuration not stated) the TGI [1] was > 100 µM, the TGI [2] was > 100 µM and the TGI [3] was > 100 µM. For the same molecule, the TGI [4] was > 100 µM, the TGI [5] was > 100 µM and the TGI [8] was > 100 µM. For the same molecule, the TGI [6] was > 100 µM and the TGI [7] was > 100 µM.

`CCOC(=O)c1cc(/C=C/C(C)=C/C(=O)OC)oc1C` was tested, and the TGI [1] was > 100 µM, the TGI [3] was > 100 µM and the TGI [4] was > 100 µM. For the same molecule, the TGI [5] was > 100 µM, the TGI [8] was > 100 µM and the TGI [6] was > 100 µM. The TGI [7] was > 100 µM.

With `Cc1cccc(C)c1NC(=O)C1C(=O)N(c2c(C)cccc2C)C(=O)/C1=N\NC(N)=S` (configuration not stated) the TGI [1] was > 100 µM, the TGI [2] was > 100 µM and the TGI [3] was > 100 µM. For the same molecule, the TGI [4] was > 100 µM, the TGI [5] was > 100 µM and the TGI [6] was > 100 µM. The TGI [7] was > 100 µM.

`N#CCCN(CCC#N)c1ccc(C(Sc2ccccc2)C(NC(=O)c2cc([N+](=O)[O-])ccc2Cl)C(=O)Sc2ccccc2)cc1` (configuration not stated) was tested, and the TGI [1] was 3.95 µM, the TGI [2] was 19.7 µM and the GI50 [3] was 0.416 µM. For the same molecule, the TGI [3] was 3.62 µM and 2.29 µM, the GI50 [4] was 1.49 µM and the TGI [4] was 8.99 µM and 4.2 µM. It also gave a TGI [8] of 5.71 µM, a GI50 [6] of 2.84 µM and a TGI [6] of 13.5 µM. For the same molecule, the GI50 [7] was 2.14 µM and the TGI [7] was 8.36 µM and 7.63 µM.

`NC(=S)NNc1c([N+](=O)[O-])cnn(-c2ccccc2)c1=O` gave a TGI [1] of 35.1 µM, a TGI [2] of 33 µM and a TGI [3] of 19.3 µM. It also gave a TGI [4] of 35 µM, a TGI [5] of 28.2 µM and a TGI [8] of 23.7 µM. The TGI [6] was 34.4 µM and the TGI [7] was 32.1 µM.

For `CN1CC[C@]2(C)c3ccc(O)cc3CC3CCCC1C32C` (some centres not stated), the TGI [1] was > 100 µM, the TGI [2] was > 100 µM and the TGI [3] was > 100 µM. The TGI [4] was > 100 µM, the TGI [5] was > 100 µM and the TGI [8] was > 100 µM. For the same molecule, the TGI [6] was > 100 µM and the TGI [7] was > 100 µM.

`Cc1ccc(-c2cc(-c3ccccc3)c(C#N)c(=O)n2C2OC(CO)C(O)C(O)C2O)cc1` (configuration not stated) was tested, and the TGI [1] was > 100 µM, the TGI [2] was > 100 µM and the TGI [3] was > 100 µM. For the same molecule, the TGI [4] was > 100 µM, the TGI [5] was > 100 µM and the TGI [8] was > 100 µM. The TGI [6] was > 100 µM and the TGI [7] was > 100 µM.

`OC1(c2ccccc2)OC(C#Cc2ccccc2)(c2ccccc2)c2ccccc21` (configuration not stated) was tested, and the TGI [1] was 13.5 µM, the TGI [3] was > 100 µM and the TGI [4] was 24.1 µM. It also gave a TGI [5] of 2.99 µM, a TGI [8] of 11.2 µM and a TGI [6] of 11.3 µM. It also gave a TGI [7] of 5.93 µM.

`CCC1=NC(CO)[C@H](c2ccccc2)O1` (some centres not stated) was tested, and the TGI [1] was > 100 µM, the TGI [4] was > 100 µM and the TGI [5] was > 100 µM. The TGI [8] was > 100 µM, the TGI [6] was > 100 µM and the TGI [7] was > 100 µM.

In the case of `Cc1cccc(-n2c(=S)[nH]c3c(sc(=O)n3-c3ccccc3C)c2=O)c1`, the TGI [1] is reported as > 100 µM, the TGI [2] is reported as > 100 µM and the TGI [3] is reported as > 100 µM. For the same molecule, the TGI [4] was > 100 µM, the TGI [5] was > 100 µM and the TGI [6] was > 100 µM. The TGI [7] was > 100 µM.

In the case of `C/C(=N\N(c1ccccc1)c1ccccc1)c1c(O)cc(C)oc1=O`, the TGI [1] is reported as > 100 µM, the TGI [2] is reported as > 100 µM and the TGI [5] is reported as > 100 µM. The TGI [8] was > 100 µM and the TGI [6] was > 100 µM.

With `COc1ccc(/C=C2\CCCC(C(NO)c3ccc(OC)cc3)C2=NO)cc1` (configuration not stated) the TGI [1] was > 100 µM, the TGI [2] was > 100 µM and the TGI [3] was 43.1 µM. The TGI [4] was > 100 µM, the TGI [5] was > 100 µM and the TGI [6] was > 100 µM. The TGI [7] was > 100 µM.

For `NCCCCNc1ccc2c(=O)[nH][nH]c(=O)c2c1`, the TGI [1] was > 100 µM, the TGI [2] was > 100 µM and the TGI [3] was > 100 µM. The TGI [4] was > 100 µM, the TGI [5] was > 100 µM and the TGI [8] was > 100 µM. For the same molecule, the TGI [6] was > 100 µM and the TGI [7] was > 100 µM.

Molecule `CC[PH+](CC)CC.O=COC1OC([S-])C(OC=O)C(OC=O)C1OC=O.[Au+]` (configuration not stated) has a GI50 [1] of 1.51 µM, a TGI [1] of 2.85 µM and a GI50 [2] of 1.6 µM. It also gave a TGI [2] of 3.03 µM, a GI50 [3] of 2.6 µM and a TGI [3] of 6.6 µM. For the same molecule, the GI50 [4] was 1.2 µM, the TGI [4] was 2.62 µM and the GI50 [5] was 1.61 µM. For the same molecule, the TGI [5] was 3.19 µM, the GI50 [8] was 0.902 µM and the TGI [8] was 2.41 µM. It also gave a GI50 [9] of 1.43 µM, a TGI [9] of 2.97 µM and a GI50 [6] of 1.47 µM. The TGI [6] was 3.22 µM, the GI50 [7] was 1.43 µM and the TGI [7] was 2.99 µM.

For `CCn1c2ccc(O)cc2c2c(C)c3c[n+](C)ccc3c(C)c21`, the GI50 [1] was 0.52 µM, the TGI [1] was > 100 µM and the GI50 [2] was 3.9 µM. For the same molecule, the TGI [2] was 23.4 µM, the GI50 [3] was 40.8 µM and the TGI [3] was > 100 µM. It also gave a GI50 [5] of 2 µM, a TGI [5] of 23.7 µM and a GI50 [8] of 8.83 µM. For the same molecule, the TGI [8] was > 100 µM, the GI50 [10] was 2.65 µM and the TGI [10] was 23.4 µM. The GI50 [9] was 9.17 µM, the TGI [9] was 50.9 µM and the GI50 [6] was 1.44 µM. It also gave a TGI [6] of 25.8 µM, a GI50 [7] of 3.59 µM and a TGI [7] of 32.4 µM.

Work on `CC1=C(C(=O)Nc2cccc(Cl)c2)C(c2ccccc2F)C(C(=O)Nc2cccc(Cl)c2)=C(C)N1` yielded a TGI [1] of 32.2 µM, a TGI [2] of 21 µM and a TGI [3] of 18.7 µM. It also gave a TGI [4] of 47.3 µM, a TGI [5] of 21 µM and a TGI [8] of 21.1 µM. For the same molecule, the TGI [6] was 26.5 µM and the TGI [7] was 25.2 µM.

For `COc1ccc(Cn2c3c(cc(OS(=O)(=O)C(F)(F)F)c2=O)Cc2ccccc2-3)cc1`, the GI50 [1] was 3.87 µM, the TGI [1] was 50 µM and > 100 µM and the TGI [2] was 50 µM. The GI50 [3] was 3.6 µM, the TGI [3] was 46.2 µM and 17 µM and the GI50 [4] was 7.26 µM. The TGI [4] was 50 µM and > 100 µM, the GI50 [5] was 41.1 µM and the TGI [5] was 50 µM and > 100 µM. For the same molecule, the GI50 [8] was 6.82 µM, the TGI [8] was 50 µM and > 100 µM and the GI50 [9] was 29.4 µM. The TGI [9] was 50 µM and > 100 µM, the GI50 [6] was 8.26 µM and the TGI [6] was 50 µM and > 100 µM. For the same molecule, the GI50 [7] was 5.12 µM and the TGI [7] was 50 µM and > 100 µM.

Molecule `COc1cc(/C=C2\C(=O)Nc3ccc(N(C)C)cc32)cc(OC)c1OC` has a GI50 [1] of 4.3 µM, a TGI [1] of 33.3 µM and a GI50 [2] of 8.46 µM. It also gave a TGI [2] of 46.4 µM, a GI50 [3] of 1.35 µM and a TGI [3] of 5.8 µM. It also gave a GI50 [4] of 1.5 µM, a TGI [4] of 5.43 µM and a GI50 [5] of 1.69 µM. It also gave a TGI [5] of 13.2 µM, a GI50 [8] of 3.2 µM and a TGI [8] of 18.6 µM. For the same molecule, the GI50 [10] was 1.51 µM, the TGI [10] was > 100 µM and the GI50 [6] was 3.07 µM. The TGI [6] was > 100 µM, the GI50 [7] was 1.41 µM and the TGI [7] was 4.29 µM.

`Cc1cc(S(=O)(=O)NC#N)c(S/C(=N\Nc2ccc([N+](=O)[O-])cc2)c2ccc(Cl)cc2)cc1Cl` was tested, and the GI50 [1] was 39.6 µM, the TGI [1] was > 100 µM and the GI50 [3] was 36.2 µM. For the same molecule, the TGI [3] was > 100 µM, the GI50 [4] was > 100 µM and the TGI [4] was > 100 µM. For the same molecule, the GI50 [5] was 24.6 µM, the TGI [5] was 56.9 µM and the GI50 [8] was 30.1 µM. For the same molecule, the TGI [8] was > 100 µM, the GI50 [10] was 15.9 µM and the TGI [10] was 42.6 µM. The GI50 [9] was 64.3 µM, the TGI [9] was > 100 µM and the GI50 [6] was 77.9 µM. The TGI [6] was > 100 µM, the GI50 [7] was 21.2 µM and the TGI [7] was > 100 µM.
